Data taken from US6448203B1, “Substituted aryluracils” (Bayer Aktiengesellschaft, priority 1997, dated 2002).

Experiments:
[1] = tested on: Amaranthus; experiment: Pre-emergence test; assay type: in vivo; conditions: application rate of 250 g/ha, after three weeks, 0%=no effect, 100%=total destruction
Method: (§1) Pre-Emergence Test Solvent: 5 parts by weight of acetone Emulsifier: 1 part by weight of alkylaryl polyglycol ether To produce a suitable preparation of active compound, 1 part by weight of active compound is mixed with the stated amount of solvent, the stated amount of emulsifier is added and the concentrate is diluted with water to the desired concentration. Seeds of the test plants are sown in normal soil. After about 24 hours, the soil is sprayed with the preparation of active compound in such a way as to apply the particular amounts of active compound desired per unit area. The concentration of the spray liquor is chosen such that the particular amounts of active compound desired are applied in 1000 l of water/ha. After three weeks, the degree of damage to the plants is rated in % damage in comparison to the development of the untreated control. The figures denote: 0%=no effect (like untreated control) 100%=total destruction

[2] = tested on: Abutilon; experiment: Pre-emergence test; assay type: in vivo; conditions: application rate of 250 g/ha, after three weeks, 0%=no effect, 100%=total destruction
Method: as §1

[3] = tested on: Sinapis; experiment: Pre-emergence test; assay type: in vivo; conditions: application rate of 250 g/ha, after three weeks, 0%=no effect, 100%=total destruction
Method: as §1

[4] = tested on: Setaria; experiment: Pre-emergence test; assay type: in vivo; conditions: application rate of 250 g/ha, after three weeks, 0%=no effect, 100%=total destruction
Method: as §1

[5] = tested on: Amaranthus; experiment: Post-emergence test; assay type: in vivo; conditions: application rate of 250 glha, after three weeks, 0%=no effect, 100%=total destruction
Method: (§2) Post-Emergence Test Solvent: 5 parts by weight of acetone Emulsifier: 1 part by weight of alkylaryl polyglycol ether To produce a suitable preparation of active compound, 1 part by weight of active compound is mixed with the stated amount of solvent, the stated amount of emulsifier is added and the concentrate is diluted with water to the desired concentration. Test plants which have a height of 5-15 cm are sprayed with the preparation of active compound in such a way that the particular amounts of active compound desired are applied per unit area. The concentration of the spray liquor is chosen such that the particular amounts of active compound desired are applied in […] of water/ha. After three weeks, the degree of damage to the plants is rated in % damage in comparison to the development of the untreated control. The figures denote: 0%=no effect (like untreated control) 100%=total destruction

[6] = tested on: Abutilon; experiment: Post-emergence test; assay type: in vivo; conditions: application rate of 250 glha, after three weeks, 0%=no effect, 100%=total destruction
Method: as §2

[7] = tested on: Sinapis; experiment: Post-emergence test; assay type: in vivo; conditions: application rate of 250 glha, after three weeks, 0%=no effect, 100%=total destruction
Method: as §2

[8] = tested on: Setaria; experiment: Post-emergence test; assay type: in vivo; conditions: application rate of 250 glha, after three weeks, 0%=no effect, 100%=total destruction
Method: as §2

[9] = tested on: mustard beetle larvae (Phaedon cochleariae); experiment: Phaedon larvae test; assay type: in vivo; conditions: active compound concentration of 0.1%; after 7 days; dipped cabbage leaves (Brassica oleracea)
Method: Phaedon Larvae Test Solvent: 7 parts by weight of dimethylformamide Emulsifier: 1 part by weight of alkylaryl polyglycol ether To produce a suitable preparation of active compound, 1 part by weight of active compound is mixed with the stated amount of solvent and the stated amount of emulsifier, and the concentrate is diluted with water to the desired concentration. Cabbage leaves (Brassica oleracea) are treated by being dipped into the preparation of active compound of the desired concentration and are populated with mustard beetle larvae (Phaedon cochleariae) while the leaves are still moist. After the desired period of time, the kill in % is determined. 100% means that all beetle larvae have been killed; 0% means that none of the beetle larvae have been killed.

melting point [°C]	Structure (SMILES)	degree of damage to the plants (% damage), Amaranthus [1] [%]	degree of damage to the plants (% damage), Abutilon [2] [%]	degree of damage to the plants (% damage), Sinapis [3] [%]	degree of damage to the plants (% damage), Setaria [4] [%]	degree of damage to the plants (% damage), Amaranthus [5] [%]	degree of damage to the plants (% damage), Abutilon [6] [%]	degree of damage to the plants (% damage), Sinapis [7] [%]	degree of damage to the plants (% damage), Setaria [8] [%]	kill in % [9] [%]
212	O=c1cc(C(F)(F)F)[nH]c(=O)n1-c1ccc(OCc2ccc(Cl)nc2)cc1F [Example 1, 1-[2-fluoro-4-(2-chloro-pyridin-5-y1-methoxy)-phenyl]-4-trifluoromethyl-3,6-dihydro-2,6-dioxo-1(2H)-pyrimidine]									
164	Cn1c(C(F)(F)F)cc(=O)n(-c2ccc(OCc3ccc(Cl)nc3)cc2F)c1=O [Preparation Example 2, 1-[2-fluoro4-(2-chloro-pyridin-5-yl-methoxy)-phenyl]-3-methyl4-trifluoromethyl-3,6-dihydro-2,6-dioxo-1 (2H)-pyrimidine]	100	100	100	100	100	100	100	100	
171	Nn1c(C(F)(F)F)cc(=O)n(-c2ccc(OCc3ccc(Cl)nc3)cc2F)c1=O [Preparation Example 3, 3-amino-1-[2-fluoro4-(2-chloro-pyridin-5-yl-methoxy)-phenyl]4-trifluoromethyl-3,6-dihydro-2,6-dioxo-1 (2H)-pyrimidine]									
	Nn1c(C(F)(F)F)cc(=O)n(-c2ccc(OCc3ccc(Cl)nc3)cc2F)c1=O [compound 3]	100	100	100	100	100	100	100	100	100
